Measurements from US20190161736A1, “CELL CULTURE” (National University of Singapore, priority 2016, published 2019).
Read-outs that look alike come from different tables or passages of the source.

Experiments:
[1] = tested on: MCF-7 monolayer cultures; conditions: monolayer cultures with lower cell counts, <10k cells per ml; read-out: IC50 value (previous studies); cited from earlier work
[2] = tested on: clinical human primary cancer cells cultured from blood samples (CD45- cells); test: Microwell-based CTC cluster assay, doxorubicin screening on clusters cultured from breast cancer patient blood samples; conditions: for IC50 / viability at 1 µM: Homo sapiens; for IC50: 72 hrs exposure; for viability at 1 µM: 72 hrs
[3] = tested on: MCF-7 breast cancer cell line clusters; test: Microwell-based CTC cluster assay, doxorubicin screening on MCF-7 clusters (live/dead staining); type: cell-based; conditions: Homo sapiens, MCF7, normoxia, 72 hrs exposure from Day 3, viability by Calcein-AM/EtBr
Procedure: Cell Culture of MCF-7 Cancer Cell Line MCF-7 (HTB-22TM, ATCC, USA), a human breast adenocarcinoma cell line, was first used to mimic CTC cluster formation. Cell lines were maintained in supplemented high-glucose Dulbecco's modified Eagle's medium (DMEM) (Invitrogen, USA) with 10% fetal bovine serum (FBS) (Invitrogen, USA) together with 1% penicillin-streptomycin (Invitrogen, USA). Cultures were kept at 37° C. in a humidified atmosphere containing 5% (v/v) CO2 till 80% confluence. Cells were cultured in sterile 25 cm^2 flasks (BD Bioscience, USA) and sub-cultivated two times a week with media replaced every 48 h. Sub-confluent monolayers were dissociated using 0.01% otrypsin and 5.3 mM EDTA solution (Lonza, Switzerland).
The closed system was then incubated at 37° C., 5% CO2 till drug treatment at Day 3 or Day 11 for MCF-7 cultures and clinical sample cultures respectively.
A stock solution was prepared in 100% DMSO and subsequently was diluted in supplemented DMEM (1 μl to 1 ml of media), resulting in ˜0.1% of DMSO concentration (1 μM drug concentration), which has negligible effects on cells.
To establish the IC50 values, z-stacks images of 25 microwells from each channel were obtained with a confocal microscope.

SMILES: COc1cccc2c1C(=O)c1c(O)c3c(c(O)c1C2=O)C[C@@](O)(C(=O)CO)C[C@@H]3O[C@H]1C[C@H](N)[C@H](O)[C@H](C)O1 [doxorubicin, Doxorubicin]
- IC50 [1]: ~500 nM
- IC50 ([2]; 72 h, read-out: IC50 value, sample CES021, Post treatment): > 1000 nM
- IC50 ([2]; 72 h, read-out: IC50 value, sample CES053, Post treatment): 340 nM
- IC50 ([2]; 72 h, read-out: IC50 value, sample P2B28, Post treatment): > 1000 nM
- IC50 ([2]; 72 h, read-out: IC50 value, sample P2B29, Post treatment): 860 nM
- viability at 1 µM ([2]; 72 h, read-out: Percentage of viable CD45-cells, CES21 Post-treatment, 1.6% of drug (1 μM)): 96.4%
- viability at 1 µM ([2]; 72 h, read-out: Percentage of viable CD45-cells, CES21 Post-treatment, 10.9% of drug (1 μM)): 94.9%
- viability at 1 µM ([2]; 72 h, read-out: Percentage of viable CD45-cells, CES21 Post-treatment, 34.4% of drug (1 μM)): 92%
- viability at 1 µM ([2]; 72 h, read-out: Percentage of viable CD45-cells, CES21 Post-treatment, 65.6% of drug (1 μM)): 78.6%
- viability at 1 µM ([2]; 72 h, read-out: Percentage of viable CD45-cells, CES21 Post-treatment, 89.1% of drug (1 μM)): 71.1%
- viability at 1 µM ([2]; 72 h, read-out: Percentage of viable CD45-cells, CES21 Post-treatment, 98.4% of drug (1 μM)): 66.9%
- viability at 1 µM ([2]; 72 h, read-out: Percentage of viable CD45-cells, CES21 Post-treatment, 100.0% of drug (1 μM)): 67.9%
- viability at 1 µM ([2]; 72 h, read-out: Percentage of viable CD45-cells, CES053 Post-treatment, 1.6% of drug (1 μM)): 51.7%
- viability at 1 µM ([2]; 72 h, read-out: Percentage of viable CD45-cells, CES053 Post-treatment, 10.9% of drug (1 μM)): 51.4%
- viability at 1 µM ([2]; 72 h, read-out: Percentage of viable CD45-cells, CES053 Post-treatment, 34.4% of drug (1 μM)): 48%
- viability at 1 µM ([2]; 72 h, read-out: Percentage of viable CD45-cells, CES053 Post-treatment, 65.6% of drug (1 μM)): 52.2%
- viability at 1 µM ([2]; 72 h, read-out: Percentage of viable CD45-cells, CES053 Post-treatment, 89.1% of drug (1 μM)): 42.8%
- viability at 1 µM ([2]; 72 h, read-out: Percentage of viable CD45-cells, CES053 Post-treatment, 98.4% of drug (1 μM)): 41%
- viability at 1 µM ([2]; 72 h, read-out: Percentage of viable CD45-cells, CES053 Post-treatment, 100.0% of drug (1 μM)): 39.8%
- viability at 1 µM ([2]; 72 h, read-out: Percentage of viable CD45-cells, P2B28 Post-treatment, 1.6% of drug (1 μM)): 39.3%
- viability at 1 µM ([2]; 72 h, read-out: Percentage of viable CD45-cells, P2B28 Post-treatment, 10.9% of drug (1 μM)): 32.6%
- viability at 1 µM ([2]; 72 h, read-out: Percentage of viable CD45-cells, P2B28 Post-treatment, 34.4% of drug (1 μM)): 39.2%
- viability at 1 µM ([2]; 72 h, read-out: Percentage of viable CD45-cells, P2B28 Post-treatment, 65.6% of drug (1 μM)): 28.8%
- viability at 1 µM ([2]; 72 h, read-out: Percentage of viable CD45-cells, P2B28 Post-treatment, 89.1% of drug (1 μM)): 27.6%
- viability at 1 µM ([2]; 72 h, read-out: Percentage of viable CD45-cells, P2B28 Post-treatment, 98.4% of drug (1 μM)): 24.4%
- viability at 1 µM ([2]; 72 h, read-out: Percentage of viable CD45-cells, P2B28 Post-treatment, 100.0% of drug (1 μM)): 0%
- viability at 1 µM ([2]; 72 h, read-out: Percentage of viable CD45-cells, P2B29 Post-treatment, 1.6% of drug (1 μM)): 73.6%
- viability at 1 µM ([2]; 72 h, read-out: Percentage of viable CD45-cells, P2B29 Post-treatment, 10.9% of drug (1 μM)): 56.2%
- viability at 1 µM ([2]; 72 h, read-out: Percentage of viable CD45-cells, P2B29 Post-treatment, 34.4% of drug (1 μM)): 18.5%
- viability at 1 µM ([2]; 72 h, read-out: Percentage of viable CD45-cells, P2B29 Post-treatment, 65.6% of drug (1 μM)): 7.7%
- viability at 1 µM ([2]; 72 h, read-out: Percentage of viable CD45-cells, P2B29 Post-treatment, 89.1% of drug (1 μM)): 4.1%
- viability at 1 µM ([2]; 72 h, read-out: Percentage of viable CD45-cells, P2B29 Post-treatment, 98.4% of drug (1 μM)): 1.1%
- viability at 1 µM ([2]; 72 h, read-out: Percentage of viable CD45-cells, P2B29 Post-treatment, 100.0% of drug (1 μM)): 0.4%
- IC50 ([2]; read-out: IC50 value, sample CTB039, Pre-treatment): 850 nM
- IC50 ([2]; read-out: IC50 value, sample P2B29, Pre-treatment): 940 ± 40 nM
- viability at 1 µM ([2]; read-out: Percentage of viable CD45-cells, CTB039 Pre-treatment, 1.6% of drug (1 μM)): 85.5%
- viability at 1 µM ([2]; read-out: Percentage of viable CD45-cells, CTB039 Pre-treatment, 10.9% of drug (1 μM)): 81.6%
- viability at 1 µM ([2]; read-out: Percentage of viable CD45-cells, CTB039 Pre-treatment, 34.4% of drug (1 μM)): 69.7%
- viability at 1 µM ([2]; read-out: Percentage of viable CD45-cells, CTB039 Pre-treatment, 65.6% of drug (1 μM)): 58.3%
- viability at 1 µM ([2]; read-out: Percentage of viable CD45-cells, CTB039 Pre-treatment, 89.1% of drug (1 μM)): 48.3%
- viability at 1 µM ([2]; read-out: Percentage of viable CD45-cells, CTB039 Pre-treatment, 98.4% of drug (1 μM)): 44.2%
- viability at 1 µM ([2]; read-out: Percentage of viable CD45-cells, CTB039 Pre-treatment, 100.0% of drug (1 μM)): 40.8%
- viability at 1 µM ([2]; read-out: Percentage of viable CD45-cells, P2B29 Pre-treatment, 1.6% of drug (1 μM)): 96.6%
- viability at 1 µM ([2]; read-out: Percentage of viable CD45-cells, P2B29 Pre-treatment, 10.9% of drug (1 μM)): 86.4%
- viability at 1 µM ([2]; read-out: Percentage of viable CD45-cells, P2B29 Pre-treatment, 34.4% of drug (1 μM)): 26.2%
- viability at 1 µM ([2]; read-out: Percentage of viable CD45-cells, P2B29 Pre-treatment, 65.6% of drug (1 μM)): 3.9%
- viability at 1 µM ([2]; read-out: Percentage of viable CD45-cells, P2B29 Pre-treatment, 89.1% of drug (1 μM)): 2.6%
- viability at 1 µM ([2]; read-out: Percentage of viable CD45-cells, P2B29 Pre-treatment, 98.4% of drug (1 μM)): 0.7%
- viability at 1 µM ([2]; read-out: Percentage of viable CD45-cells, P2B29 Pre-treatment, 100.0% of drug (1 μM)): 0.4%
- average correlation coefficient, percentage of microwells with cluster vs concentration of doxorubicin ([2]; clinical sample cultures, FIG. 15A): −0.71
- proportion of microwells with presence of macrophage-like cells vs drug concentration ([2]; clinical sample cultures, FIG. 15B): did not seem to correlate with drug concentration
- IC50 [3]: 780 ± 20 nM
